One test has as its target T1, Lactobacillus casei TS (Lacticaseibacillus casei, UniProt P00469).
T1 sequence (P00469 1-316): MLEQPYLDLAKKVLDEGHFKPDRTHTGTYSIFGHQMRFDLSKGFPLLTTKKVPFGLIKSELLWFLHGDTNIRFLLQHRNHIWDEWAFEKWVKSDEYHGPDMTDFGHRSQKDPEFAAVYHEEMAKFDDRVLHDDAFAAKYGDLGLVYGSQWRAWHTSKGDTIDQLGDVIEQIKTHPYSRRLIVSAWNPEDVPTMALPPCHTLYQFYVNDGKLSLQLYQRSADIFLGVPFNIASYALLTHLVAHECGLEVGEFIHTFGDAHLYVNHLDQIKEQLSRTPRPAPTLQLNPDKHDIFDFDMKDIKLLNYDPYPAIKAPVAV
Conditions: cited from earlier work.

Test [1] addresses T2, rHuTS (Homo sapiens, UniProt P04818).
T2 construct: His tag (from pET-28a(+)) (N); made in house; host or cells: E. coli BL21 (DE3)/pET-28a(+)
Kind of test: Inhibition of rHuTS reactions by Tomudex and 5-FdUMP (initial rates). It counts as biochemical. Conditions: 30° C., fluorescence 340/595 nm. Here is the method:
(§1) Enzyme Assays and Kinetic Measurements. Thymidylate synthase assays were done in 96 well Costar UV transparent plates in a reaction volume of 200 μL, consisting of 40 mM Tris pH 7.5, 25 mM MgCl2, 1 mM EDTA, 25 mM-mercaptoethanol, 125M dUMP, and 65 μM N5, N10-methylene tetrahydrofolate indicated. Tetrahydrofolate stock solutions were prepared by dissolving tetrahydrofolic acid (Sigma) directly into 0.2M Tris pH 7.5, 0.5 M-mercaptoethanol; stock solutions were stored at −80° C. N5, N10-methylene tetrahydrofolate was prepared by adding 12 μl of 3.8% formaldehyde to 1 ml of a 0.65 mM solution of tetrahydrofolate and incubating for 5 minutes at 37° C. N5, N10-methylene tetrahydrofolate was kept on ice and used within 2 hours of preparation.
Conversion of BVdUMP to fluorescent product(s) by thymidylate synthase was measured in 200 μl thymidylate synthase reactions containing 125M BVdUMP in 96 well Dynex Microfluor Black “U” bottom microtiter plates using an excitation wavelength of 340 nm and emission wavelength of 595 nm. Fluorescence was measured with a Tecan Spectrafluor Plus fluorimeter.

Test [2] has as its target T2, rHuTS. Kind of test: Preincubation of rHuTS with BVdUMP (enzyme inactivation). In kind it is biochemical. Conditions: 20 hour incubation with 125 μM BVdUMP, then dUMP as substrate. Here is the method:
Human thymidylate synthase was pre-incubated in reaction mixtures with and without 125 μM BVdUMP. After 20 hours, BVdUMP was added to a concentration of 125 μM, dUMP to a final concentration of 125 μM, and N5, N10-methylene tetrahydrofolate was added to 70 μM. Thymidylate synthase activity was determined by measuring the increase in A340. Solid circles (preincubated reaction), Open circles (no preincubation).
To help further clarify this situation, an extended incubation of rHuTS with BVdUMP was done in order to measure any inactivation that may occur over a period of time longer than that in which the kinetics were performed (FIG. 2).

Test [3] has as its target T3, rHuTS (recombinant human thymidylate synthase) (Homo sapiens, UniProt P04818).
T3 construct: His tag (from pET-28a(+)) (N); made in house; host or cells: E. coli BL21 (DE3)/pET-28a(+)
Kind of test: Enzyme kinetics of rHuTS with dUMP and BVdUMP. It counts as biochemical. The protocol:
Enzyme Preparation. Cloned human thymidylate synthase plasmid pBCHTS was subcloned into E. coli. BL21 (DE3)/pET-28a(+) (Novagen) using the Ndel ñSacI insertion site, in order to add an amino terminal His tag. Enzyme was expressed in E. coli. by induction with IPTG, and purified by affinity chromatography on a Ni^2+ His Bind metal chelation resin (Novagen). The column Ni^2+ His Bind metal chelation column was washed with 20 mM Tris pH 7.9, 5 mM imidazole, 0.5M NaCl; thymidylate synthase activity was eluted with 20 mM Tris pH 7.9, 60 mM imidazole, 0.5M NaCl.
as §1
Enzyme kinetic constants (Km and Vmax) were determined for the human thymidylate synthase substrates dUMP and BVdUMP using the enzyme assay conditions described above. The initial rates of the enzyme reactions was determined by measuring the increase in A340 for the reaction with dUMP, and decrease in A294 for the reaction with BVdUMP. The catalytic efficiency of the enzyme (Kcat/Km) was calculated from the kinetic constants Km and Vmax.

Bounds are passed on as bounds.

T2 sequence (P04818 whole entry): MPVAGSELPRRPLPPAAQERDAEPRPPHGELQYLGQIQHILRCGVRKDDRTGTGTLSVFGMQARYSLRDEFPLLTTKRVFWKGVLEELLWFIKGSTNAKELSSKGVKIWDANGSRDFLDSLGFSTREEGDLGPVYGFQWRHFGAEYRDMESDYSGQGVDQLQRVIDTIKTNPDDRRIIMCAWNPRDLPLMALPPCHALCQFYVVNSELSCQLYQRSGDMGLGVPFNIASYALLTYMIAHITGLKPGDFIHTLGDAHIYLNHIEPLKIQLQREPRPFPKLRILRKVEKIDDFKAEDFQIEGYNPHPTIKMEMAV
T3 sequence (P04818 whole entry): as above

Consider `O=c1[nH]c(=O)n([C@H]2C[C@H](O)[C@@H](COP(=O)(O)O)O2)cc1/C=C/Br` [BVdUMP, Bromovinyl, 2′-Deoxyuridine Monophosphate], for which the Kcat is 0.018 s⁻¹ on Lactobacillus casei TS and 0.0067 s⁻¹ in test [3] (rHuTS). Also, the Ki was 0.6 µM on Lactobacillus casei TS (dUMP reaction, read-out: Kl (of BVdUMP)) and 4.5 µM in test [3] (rHuTS, dUMP reaction, read-out: Kl (of BVdUMP)). In addition, the Michaelis-Menten constant (Km) on Lactobacillus casei TS (substrate) was 3.3 µM; in test [3] (rHuTS, substrate) it was 16 µM. Moreover, the figures for the “initial rate of rHuTS reaction, No Inhibitor” value at rHuTS [1] (BVdUMP + THF) and at rHuTS [1] (BVdUMP − THF) were 109 ± 16 RFU/min and 75 ± 11 RFU/min, respectively. Moreover, the “inactivation of rHuTS” value at rHuTS [2] is reported as “little or no enzymatic inactivation”. Further, the “improved efficiency of conversion of BVdUMP, human enzyme vs L. casei enzyme” value in test [3] (relative to endogenous substrate dUMP) is greater than 6.4 fold.

A word on the Km: it is the concentration of substrate that gives half-maximal velocity.

Source of the values: US7462605B2, “Phosphoramidate compounds and methods of use” (Celmed Oncology (USA), Inc., priority 2002, dated 2008).
